In patent publication US8901305B2, “Aryl lactam kinase inhibitors” (Bristol-Myers Squibb Company, priority 2012, dated 2014):

Target: T1, GST-Xa-hAAK1 (Homo sapiens, UniProt Q2M2I8)
T1 construct: made in house
Assay: AAK1 kinase assay
Format: biochemical
Details: ATP 22 μM, 3 hours at room temperature
Experimental: The assays were performed in U-bottom 384-well plates. […] The reactions were initiated by the combination of bacterially expressed, GST-Xa-hAAK1 with substrates and test compounds. The reactions were incubated at room temperature for 3 hours and terminated by adding 60 μl of 35 mM EDTA buffer to each sample. The reactions were analyzed on the Caliper LabChip 3000 (Caliper, Hopkinton, Mass.) by electrophoretic separation of the fluorescent substrate and phosphorylated product. […] Compounds were dissolved at 10 mM in dimethylsulfoxide (DMSO) and evaluated at eleven concentrations. IC50 values were derived by non-linear regression analysis.

T1 sequence (Q2M2I8 whole entry): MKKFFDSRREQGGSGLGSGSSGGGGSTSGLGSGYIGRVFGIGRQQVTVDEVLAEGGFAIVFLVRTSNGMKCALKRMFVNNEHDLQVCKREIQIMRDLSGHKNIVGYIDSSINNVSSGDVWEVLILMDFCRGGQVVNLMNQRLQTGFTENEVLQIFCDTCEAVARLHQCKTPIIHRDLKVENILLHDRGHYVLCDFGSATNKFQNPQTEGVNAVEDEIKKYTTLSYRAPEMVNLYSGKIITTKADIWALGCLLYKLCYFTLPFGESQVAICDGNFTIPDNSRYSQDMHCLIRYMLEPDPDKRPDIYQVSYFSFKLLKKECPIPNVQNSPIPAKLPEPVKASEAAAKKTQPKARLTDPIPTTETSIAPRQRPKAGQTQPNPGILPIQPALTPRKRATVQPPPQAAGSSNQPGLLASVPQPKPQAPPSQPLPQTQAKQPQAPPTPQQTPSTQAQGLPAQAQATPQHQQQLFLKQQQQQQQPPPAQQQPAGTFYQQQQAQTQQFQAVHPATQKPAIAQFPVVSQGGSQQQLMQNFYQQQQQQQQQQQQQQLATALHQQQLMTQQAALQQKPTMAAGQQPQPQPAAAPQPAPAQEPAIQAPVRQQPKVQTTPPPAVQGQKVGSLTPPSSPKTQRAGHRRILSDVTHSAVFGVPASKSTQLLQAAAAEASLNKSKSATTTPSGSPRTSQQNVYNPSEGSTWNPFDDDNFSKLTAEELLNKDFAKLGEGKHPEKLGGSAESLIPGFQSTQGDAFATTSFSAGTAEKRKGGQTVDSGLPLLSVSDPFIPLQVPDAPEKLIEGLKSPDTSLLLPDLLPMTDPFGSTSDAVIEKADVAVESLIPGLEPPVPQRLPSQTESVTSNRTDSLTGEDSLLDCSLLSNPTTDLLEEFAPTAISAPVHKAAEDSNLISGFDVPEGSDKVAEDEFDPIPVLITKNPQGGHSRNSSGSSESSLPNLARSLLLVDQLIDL

SMILES	IC50
Cc1nccc2c1c(=O)n(C)c1cc(OC[C@@H](N)CC(C)C)c(C(C)O)cc21 (single isomer, unassigned) [Example 30]	1.7 nM
Cc1nccc2c1c(=O)n(C)c1cc(OC[C@@](C)(N)CC(C)C)ccc21 (single isomer, unassigned) [Example 38]	13 nM
CC(C)C[C@H](N)COc1cc2c(cc1O)c1ccncc1c(=O)n2C [Example 7, (S)-8-(2-amino-4-methylpentyloxy)-9-hydroxy-6-methylbenzo[c][2,7]naphthyridin-5(6H)-one]	11 nM
CC(C)C[C@H](N)COc1ccc2c3ccncc3c(=O)n(Cc3ccccc3)c2c1 [Example 11, (S)-8-((2-amino-4-methylpentyl)oxy)-6-benzylbenzo[c][2,7]naphthyridin-5(6H)-one]	73 nM
COCCn1c(=O)c2cnccc2c2ccc(OC[C@@H](N)CC(C)C)cc21 [Example 12, (S)-8-((2-amino-4-methylpentyl)oxy)-6-(2-methoxyethyl)benzo[c][2,7]naphthyridin-5(6H)-one]	85 nM
Cc1nccc2c1c(=O)n(C)c1cc(OC[C@@H](N)CC3CC3)ccc21 [Example 21, (S)-8-(2-amino-3-cyclopropylpropoxy)-4,6-dimethylbenzo[c][2,7]naphthyridin-5(6H)-one]	23 nM
Cc1nccc2c1c(=O)n(C)c1cc(OC[C@@H](N)CC3CCC3)ccc21 [Example 22, (S)-8-(2-amino-3-cyclobutylpropoxy)-4,6-dimethylbenzo[c][2,7]naphthyridin-5(6H)-one]	12 nM
CC(C)CC(C)(N)COc1ccc2c3ccncc3c(=O)n(C)c2c1 (centres unmarked) [Example 28, 8-((2-amino-2,4-dimethylpentyl)oxy)-6-methylbenzo[c][2,7]naphthyridin-5(6H)-one]	1.1 nM
COc1cc2c3ccnc(C)c3c(=O)n(C)c2cc1OCC(C)(N)CC(C)C (centres unmarked) [Example 34, 8-((2-amino-2,4-dimethylpentyl)oxy)-9-methoxy-4,6-dimethylbenzo[c][2,7]naphthyridin-5(6H)-one]	5.9 nM
Cc1nccc2c1c(=O)n(C)c1cc(OC[C@@H](N)CC(C)C)c(C(C)(C)O)cc21 [Example 35, (S)-8-((2-amino-4-methylpentyl)oxy)-9-(2-hydroxypropan-2-yl)-4,6-dimethylbenzo[c][2,7]naphthyridin-5(6H)-one]	114 nM
CCc1cc2c3ccnc(C)c3c(=O)n(C)c2cc1OC[C@@H](N)CC(C)C [Example 36, (S)-8-((2-amino-4-methylpentyl)oxy)-9-ethyl-4,6-dimethylbenzo[c][2,7]naphthyridin-5(6H)-one]	0.35 nM
Cc1nccc2c1c(=O)n(C)c1cc(OC[C@H](CC(C)C)N(C)C)ccc21 [Example 40, (S)-8-((2-(dimethylamino)-4-methylpentyl)oxy)-4,6-dimethylbenzo[c][2,7]naphthyridin-5(6H)-one]	123 nM
CC(C)C[C@H](N)COc1ccc2c3ccncc3c(=O)n(CCO)c2c1 [Example 44, (S)-8-(2-amino-4-methylpentyloxy)-6-(2-hydroxyethyl)benzo[c][2,7]naphthyridin-5(6H)-one]	41 nM
CC(C)C[C@H](N)COc1ccc2c3ccncc3c(=O)n(CC(F)(F)F)c2c1 [Example 45, (S)-8-(2-amino-4-methylpentyloxy)-6-(2,2,2-trifluoroethyl)benzo[c][2,7]naphthyridin-5(6H)-one]	29 nM
COc1ccc(CNc2nccc3c2c(=O)n(C)c2cc(OC[C@@H](N)CC(C)C)ccc32)cc1 [Example 50, (S)-8-((2-amino-4-methylpentyl)oxy)-4-((4-methoxybenzyl)amino)-6-methylbenzo[c][2,7]naphthyridin-5(6H)-one]	33 nM
CC(C)OC[C@H](N)COc1ccc2c3ccncc3c(=O)n(C)c2c1 [Example 53, (S)-8-(2-amino-3-isopropoxypropoxy)-6-methylbenzo[c][2,7]naphthyridin-5(6H)-one]	119 nM
Cn1c(=O)c2cnccc2c2ccc(OCC3CCCCN3)cc21 (centres unmarked) [Example 57, 6-methyl-8-(piperidin-2-ylmethoxy)benzo[c][2,7]naphthyridin-5(6H)-one]	229 nM
Cc1nccc2c1c(=O)n(C)c1c(Cl)c(OC[C@@H](N)CC(C)C)ccc21 [Example 61, (S)-8-((2-amino-4-methylpentyl)oxy)-7-chloro-4,6-dimethylbenzo[c][2,7]naphthyridin-5(6H)-one]	126 nM
Cc1cc2c(cn1)c(=O)n(C)c1cc(OC[C@@H](N)CC(C)C)ccc21 [Example 67, (S)-8-((2-amino-4-methylpentyl)oxy)-2,6 dimethylbenzo[c][2,7]naphthyridin-5(6H)-one]	893 nM
COCCn1c(=O)c2c(C)nccc2c2ccc(OC[C@@H](N)CC(C)C)cc21 [Example 80, (S)-8-((2-amino-4-methylpentyl)oxy)-6-(2-methoxyethyl)-4-methylbenzo[c][2,7]naphthyridin-5(6H)-one]	134 nM
Cc1nccc2c1c(=O)[nH]c1c(F)c(OC[C@@H](N)CC(C)C)ccc12 [Example 82, (S)-8-(2-amino-4-methylpentyloxy)-7-fluoro-4-methylbenzo[c][2,7]naphthyridin-5(6H)-one]	150 nM

Same assay, conditions: given as IC50 range; ATP 22 μM, 3 hours at room temperature

SMILES	IC50
CC(C)C[C@H](N)COc1ccc2c3ccncc3c(=O)n(C(C)C)c2c1 [Example 8, (S)-8-((2-amino-4-methylpentyl)oxy)-6-isopropylbenzo[c][2,7]naphthyridin-5(6H)-one]	10 to 100 nM
CC(C)C[C@H](N)COc1ccc2c3ccncc3c(=O)n(CC3CC3)c2c1 [Example 13, (S)-8-((2-amino-4-methylpentyl)oxy)-6-(cyclopropylmethyl)benzo[c][2,7]naphthyridin-5(6H)-one]	10 to 100 nM
CC(=O)Nc1cc2c(cn1)c(=O)n(C)c1cc(OC[C@@H](N)CC(C)C)ccc21 [Example 18, (S)—N-(8-(2-amino-4-methylpentyloxy)-6-methyl-5-oxo-5,6-dihydrobenzo[c][2,7]naphthyridin-2-yl)acetamide]	100 to 2000 nM
CN[C@H](COc1ccc2c3ccncc3c(=O)n(C)c2c1)CC(C)C [Example 54, (S)-6-methyl-8-((4-methyl-2-(methylamino)pentyl)oxy)benzo[c][2,7]naphthyridin-5(6H)-one]	10 to 100 nM
Cn1c(=O)c2cnccc2c2ccc(OC[C@@H](N)CC(C)(F)F)cc21 [Example 55, (S)-8-((2-amino-4,4-difluoropentyl)oxy)-6-methylbenzo[c][2,7]naphthyridin-5(6H)-one]	10 to 100 nM
Cc1cc2c(cn1)c(=O)n(C)c1cc(OC[C@@H](N)CC(C)C)c(Br)cc21 [Example 66]	100 to 2000 nM
Cc1cc2c(cn1)c(=O)n(C)c1cc(OC[C@@H](N)CC(C)C)c(Cl)cc21 [Example 68, (S)-8-((2-amino-4-methylpentyl)oxy)-9-chloro-2,6-dimethylbenzo[c][2,7]naphthyridin-5(6H)-one]	10 to 100 nM
COC[C@H](N)COc1ccc2c3ccncc3c(=O)n(C)c2c1 [Example 69, (S)-8-(2-amino-3-methoxypropoxy)-6-methylbenzo[c][2,7]naphthyridin-5(6H)-one]	10 to 100 nM
Cc1nccc2c1c(=O)n(C)c1cc(OC[C@@H](N)CC(C)C)c(-n3cccn3)cc21 [Example 74]	1 to 10 nM
Cc1nccc2c1c(=O)n(C)c1cc(OC[C@@H](N)CC(C)C)c(OC(F)F)cc21 [Example 90, (S)-8-((2-amino-4-methylpentyl)oxy)-9-(difluoromethoxy)-4,6-dimethylbenzo[c][2,7]naphthyridin-5(6H)-one]	10 to 100 nM
Cn1c(=O)c2cnccc2c2ccc(OCC(N)CC(F)(F)F)cc21 (centres unmarked) [Example 93, 8-(2-amino-4,4,4-trifluorobutoxy)-6-methylbenzo[c][2,7]naphthyridin-5(6H)-one]	10 to 100 nM

Other lines, results leading:

IC50	SMILES
10 to 100 nM	Cc1nccc2c1c(=O)n(C)c1cc(OC[C@@H](N)CC(C)C)c(C(C)O)cc21 (single isomer, unassigned) [Example 31]
1 to 10 nM	Cc1nccc2c1c(=O)n(C)c1cc(OC[C@@H](N)CC(C)C(F)(F)F)ccc21 (single isomer, unassigned) [Example 87]
10 to 100 nM	Cc1nccc2c1c(=O)n(C)c1cc(OCC(N)CC(F)(F)F)ccc21 (single isomer, unassigned) [Example 91]
1 to 10 nM	Cc1nccc2c1c(=O)n(C)c1cc(OCC(N)CC(F)(F)F)ccc21 (single isomer, unassigned) [Example 92]
100 to 2000 nM	Cc1nccc2c1c(=O)n(C)c1c(F)c(OCC(C)(N)CC(C)C)ccc21 (centres unmarked) [Example 29, 8-((2-amino-2,4-dimethylpentyl)oxy)-7-fluoro-4,6-dimethylbenzo[c][2,7]naphthyridin-5(6H)-one]
100 to 2000 nM	CC(C)C[C@H](N)COc1ccc2c3ccnc(C(F)F)c3c(=O)n(C)c2c1 [Example 60, (S)-8-(2-amino-4-methylpentyloxy)-4-(difluoromethyl)-6-methylbenzo[c][2,7]naphthyridin-5(6H)-one]
1 to 10 nM	Cc1nccc2c1c(=O)n(C)c1cc(OC[C@@H](N)CC(C)C)c(CO)cc21 [Example 71, (S)-8-(2-amino-4-methylpentyloxy)-9-(hydroxymethyl)-4,6-dimethylbenzo[c][2,7]naphthyridin-5(6H)-one]
100 to 2000 nM	Cc1nccc2c1c(=O)n(C)c1cc(OC[C@@H](N)CC(C)C)c(S(C)(=O)=O)cc21 [Example 76, (S)-8-(2-amino-4-methylpentyloxy)-4,6-dimethyl-9-(methylsulfonyl)benzo[c][2,7]naphthyridin-5(6H)-one]
1 to 10 nM	COc1cc2c3ccnc(C)c3c(=O)n(C)c2cc1OC[C@@H](N)CC(C)C [Example 89, (S)-8-((2-amino-4-methylpentyl)oxy)-9-methoxy-4,6-dimethylbenzo[c][2,7]naphthyridin-5(6H)-one]
